In patent publication US20230089867A1, “CYCLIC PENTAMER COMPOUNDS AS PROPROTEIN CONVERTASE SUBTILISIN/KEXIN TYPE 9 (PCSK9) INHIBITORS FOR THE TREATMENT OF METABOLIC DISORDER” (Novartis AG, priority 2018, published 2023):

Biological target: human PCSK9 (Homo sapiens, UniProt Q8NBP7)
Assay: PCSK9 ligand binding TR-FRET assay (interference with binding of human PCSK9 to human LDLR)
Conditions: for Max % inhibition: PCSK9 FRET assay, efficacy (Amax), 100% = 1 uM unlabeled human PCSK9, 0% = DMSO; for IC50: TR-FRET, human PCSK9 Alexa Fluor 647 / human LDLR extracellular domain-Europium Kryptate, read-out: PCSK9 FRET Assay IC50
Procedure: The PCSK9 binding of the compounds of the disclosure were measured using a time resolved fluorescence resonance energy transfer (TR-FRET) assay. This time resolved fluorescence resonance energy transfer (TR-FRET) assay measures the ability of a compound of the present disclosure to interfere with the binding of human PCSK9 to human LDLR, providing measures of both potency (IC50) and efficacy (Amax).
These solutions were pipetted into columns 1 and 11 of the compound plate. Threefold serial dilutions were generated in columns 2-10 and 12-20 of the compound plate by transferring 10 uL into 20 uL of DMSO. Columns 21 and 22 of the compound plate were negative controls containing DMSO alone.
An intermediate plate was generated in a Greiner V bottom plate by transferring 8 uL from each well of the master plate into a corresponding well containing 92 uL of assay buffer and mixing thoroughly.
A Proxi plate-low volume assay plate was used for the assay. […] For the positive control wells in columns 23 and 24 of the plate, 5 uL of unlabeled human PCSK9 was added at 4 uM in assay buffer containing 8% DMSO. Following a 30 minute incubation, 5 uL of 4 nM Human LDLR extracellular domain-Europium Kryptate was added and the mixture was incubated for an additional 2 hours.
The FRET ratio (FRET/Europium) was used for calculations.
Data is expressed as percent inhibition: (value−0%)/(100%−0%).

human PCSK9, sequence (Q8NBP7 153-692): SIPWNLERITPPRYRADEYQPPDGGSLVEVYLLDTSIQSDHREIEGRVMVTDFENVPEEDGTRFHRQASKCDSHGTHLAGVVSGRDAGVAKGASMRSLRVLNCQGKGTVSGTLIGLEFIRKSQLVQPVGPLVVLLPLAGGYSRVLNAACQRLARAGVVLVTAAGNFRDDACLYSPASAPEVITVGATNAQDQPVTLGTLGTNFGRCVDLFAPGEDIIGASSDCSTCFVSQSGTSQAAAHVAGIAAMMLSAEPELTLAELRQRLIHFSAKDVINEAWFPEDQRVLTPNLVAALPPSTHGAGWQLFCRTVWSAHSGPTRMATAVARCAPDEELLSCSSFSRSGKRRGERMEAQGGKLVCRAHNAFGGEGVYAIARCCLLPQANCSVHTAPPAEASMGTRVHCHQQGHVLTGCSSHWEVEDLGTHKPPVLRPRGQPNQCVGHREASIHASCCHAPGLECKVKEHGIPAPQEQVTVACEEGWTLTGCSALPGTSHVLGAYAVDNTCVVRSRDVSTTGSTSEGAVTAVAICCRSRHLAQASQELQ
human PCSK9, sequence (Q8NBP7 31-152 partner limits assumed): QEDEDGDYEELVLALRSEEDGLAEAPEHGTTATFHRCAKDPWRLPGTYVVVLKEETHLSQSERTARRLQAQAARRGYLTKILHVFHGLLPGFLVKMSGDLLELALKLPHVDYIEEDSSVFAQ

Row | SMILES | Max % inhibition [%] | IC50 [nM]
1 | C[C@H]1CNC(=O)C[C@H](Cc2ccc(Cl)cc2)N(C)C(=O)[C@H](CO)NC(=O)[C@H](C)N(Cc2ccc(Cl)cc2Oc2ccc3c(c2)C(=O)N(C2CCN(CC4CC4)CC2)C3)C(=O)C[C@@H](Cc2ccccc2)C(=O)N1C [Compound 139, (2S,5S,8S,13S,16R)-16-benzyl-1-(4-chloro-2-((2-(1-(cyclopropylmethyl)piperidin-4-yl)-3-oxoisoindolin-5-yl)oxy)benzyl)-8-(4-chlorobenzyl)-5-(hydroxymethyl)-2,7,13,14-tetramethyl-1,4,7,11,14-pentaazacyclooctadecane-3,6,10,15,18-pentaone] | 65.69 | 5.7
2 | CNc1ncc(-c2ccc(Oc3cc(Cl)ccc3CN3C(=O)C[C@@H](Cc4ccccc4)C(=O)N(C)[C@@H](C)CNC(=O)C[C@H](Cc4ccc(Cl)cc4)N(C)C(=O)[C@H](COC)NC(=O)[C@@H]3C)cc2)cn1 [Compound 86, (2S,5S,8S,13S,16R)-16-benzyl-1-(4-chloro-2-(4-(2-(methylamino)pyrimidin-5-yl)phenoxy)benzyl)-8-(4-chlorobenzyl)-5-(methoxymethyl)-2,7,13,14-tetramethyl-1,4,7,11,14-pentaazacyclooctadecane-3,6,10,15,18-pentaone] | 56.62 | 20.5
3 | COC[C@@H]1NC(=O)[C@H](C)N(Cc2ccc(F)cc2Oc2ccc(-c3cnc(CN(C)C)n3C)cc2)C(=O)C[C@@H](Cc2ccccc2)C(=O)N(C)[C@@H](C)CNC(=O)C[C@H](Cc2ccc(Cl)cc2)N(C)C1=O [Compound 199, (2S,5S,8S,13S,16R)-16-benzyl-8-(4-chlorobenzyl)-1-(2-(4-(2-((dimethylamino)methyl)-1-methyl-1H-imidazol-5-yl)phenoxy)-4-fluorobenzyl)-5-(methoxymethyl)-2,7,13,14-tetramethyl-1,4,7,11,14-pentaazacyclooctadecane-3,6,10,15,18-pentaone] | 100.29 | 24.8

The next compounds have a lower IC50 than those just listed; values first:

Row | Max % inhibition [%] | IC50 [nM] | SMILES
4 | 95.68 | 1.3 | CNCC[C@H]1C(=O)N[C@@H](COC)C(=O)N(C)[C@@H](Cc2ccc(Cl)cc2)CC(=O)N[C@H]2CCCC[C@@H]2N(C)C(=O)[C@H](Cc2ccccc2)CC(=O)N1Cc1ccc(Cl)cc1Oc1ccc(-c2cnc(CN(C)C)n2C)cc1 [Compound 3, (4S,7S,10S,14R,16aS,20aS)-14-benzyl-11-(4-chloro-2-(4-(2-((dimethylamino)methyl)-1-methyl-1H-imidazol-5-yl)phenoxy)benzyl)-4-(4-chlorobenzyl)-7-(methoxymethyl)-5,16-dimethyl-10-(2-(methylamino)ethyl)hexadecahydrobenzo[l][1,4,7,11,14]pentaazacyclooctadecine-2,6,9,12,15(3H)-pentaone]
5 | 104.01 | 0.9 | COC[C@@H]1NC(=O)[C@H](C)N(Cc2c(OCC(F)(F)F)cc(Cl)cc2Oc2ccc(-c3cnc(CN(C)C)n3C)cc2)C(=O)CCC(=O)N(C)[C@H]2CCCC[C@@H]2NC(=O)C[C@H](Cc2ccc(Cl)cc2)N(C)C1=O [Compound 39, (4S,7S,10S,16aS,20aS)-11-(4-chloro-2-(4-(2-((dimethylamino)methyl)-1-methyl-1H-imidazol-5-yl)phenoxy)-6-(2,2,2-trifluoroethoxy)benzyl)-4-(4-chlorobenzyl)-7-(methoxymethyl)-5,10,16-trimethylhexadecahydrobenzo[l][1,4,7,11,14]pentaazacyclooctadecine-2,6,9,12,15(3H)-pentaone]
6 | 59.34 | 0.7 | CC=CC[C@@H]1CC(=O)N(Cc2ccc(Cl)cc2Oc2ccc(-c3cnc(CN(C)C)n3C)cc2)[C@@H](C)C(=O)N[C@@H](COC)C(=O)N(C)[C@@H](Cc2ccc(Cl)cc2)CC(=O)N[C@H]2CCCC[C@@H]2N(C)C1=O [Compound 286, (4S,7S,10S,14R,16aS,20aS)-14-(but-2-en-1-yl)-11-(4-chloro-2-(4-(2-((dimethylamino)methyl)-1-methyl-1H-imidazol-5-yl)phenoxy)benzyl)-4-(4-chlorobenzyl)-7-(methoxymethyl)-5,10,16-trimethylhexadecahydrobenzo[l][1,4,7,11,14]pentaazacyclooctadecine-2,6,9,12,15(3H)-pentaone]
